“Also recorded” adds a separate entry of the source.
Legend:
[1] = target: T1, PrP^Sc in ScN2a cells (Mus musculus, UniProt P04925); conditions: cited from earlier work
[2] = target: T1, PrP^Sc in ScN2a cells; conditions: cited from earlier work; remark: listed apart in the source
[3] = target: T1, PrP^Sc in ScN2a cells; type: cell-based

T1 sequence (P04925 23-230 limits assumed): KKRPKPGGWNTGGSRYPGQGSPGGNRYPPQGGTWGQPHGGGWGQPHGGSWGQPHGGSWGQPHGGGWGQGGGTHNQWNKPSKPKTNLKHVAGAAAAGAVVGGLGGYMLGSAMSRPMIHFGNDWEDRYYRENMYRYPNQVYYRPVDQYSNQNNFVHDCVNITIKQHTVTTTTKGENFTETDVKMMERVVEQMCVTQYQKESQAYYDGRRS

C[S+](C)[O-] [DMSO, dimethyl sulfoxide]
formation of PrP^Sc [1]: inhibit the formation of new PrP^Sc | reduction of pre-existing PrP^Sc levels [2]: cannot reduce pre-existing PrP^Sc levels

CCN(CC)CCCC(C)Nc1ccnc2cc(Cl)ccc12 (centres unmarked) [chloroquine]
effect of lysosomotropic agent on ability of PEI to eliminate PrP^Sc [3]: blocked the ability of PEI to eliminate PrP^Sc; also recorded: clear bands for PrP^Sc | formation of PrP^Sc [1]: do not interfere with the formation of PrP^Sc | effect of lysosomotropic agent alone on PrP^Sc levels [2]: have no effect on PrP^Sc levels

OCC(O)CO [glycerol]
formation of PrP^Sc [1]: inhibit the formation of new PrP^Sc | reduction of pre-existing PrP^Sc levels [2]: cannot reduce pre-existing PrP^Sc levels

CC[C@@]1([C@@H]2O[C@@H]([C@H]3O[C@@](O)(CO)[C@H](C)C[C@@H]3C)C[C@@H]2C)CC[C@H]([C@]2(C)CC[C@]3(C[C@H](O)[C@@H](C)[C@@H]([C@@H](C)[C@@H](OC)[C@H](C)C(=O)O)O3)O2)O1 [monensin]
formation of PrP^Sc [1]: do not interfere with the formation of PrP^Sc

NH4Cl
effect of lysosomotropic agent on ability of PEI to eliminate PrP^Sc [3]: failure of NH4Cl to affect PrP^Sc levels; also recorded: barely detectable amounts of PrP^Sc | formation of PrP^Sc [1]: do not interfere with the formation of PrP^Sc | effect of lysosomotropic agent alone on PrP^Sc levels [2]: have no effect on PrP^Sc levels

Reference: US20020041862A1 (priority 1999, published 2002)
